Assay results reported in paper PMC10703426, “New characterization of dihydroergotamine receptor pharmacology in the context of migraine: utilization of a β-arrestin recruitment assay” (Frontiers in Neurology, 2023).
Where a name gives a salt, the structure may show the parent alone. Read-outs that look alike come from different tables or passages of the source.

What was measured:
human 5-HT4E receptor = target: T1, human 5-HT4E receptor (Homo sapiens, UniProt Q13639); assay: Radioligand competition binding, [3H]GR 113808, CHO cell membranes
T1 construct: host or cells: CHO
Method: Nonspecific binding was determined in the presence of 100 μM serotonin. Following incubation, the same protocol as described above for 5-HT3 binding was employed. The standard reference compound for 5-HT4E binding is serotonin.

D2 = target: T2, D2 (Homo sapiens, UniProt P14416); assay: Radioligand competition binding, [3H]7-OH-DPAT, HEK-293 cells
T2 construct: host or cells: HEK-293
Method: All assays were performed in duplicate (ie, 2 replicates per assay, per standard manufacturer protocol).

D1 = target: T3, D1 (Homo sapiens, UniProt P21728); assay: gpcrMAX PathHunter β-arrestin recruitment, antagonist mode; format: cell-based
T3 construct: ProLink enzyme-donor fragment of β-galactosidase (own knowledge of the PathHunter design)
Method: (§1) PathHunter cell lines were expanded from freezer stocks according to standard procedures and cells were seeded in a total volume of 20 μL into white-walled, 384-well microplates in duplicate and incubated at 37°C prior to testing. […] Intermediate dilution (1% vehicle concentration) of sample stocks was performed to generate a 5× sample in assay buffer, of which 5 μL was added to the cells and incubated for 90 or 180 min at 37°C or room temperature, depending on the specific receptor, as established by manufacturer optimization protocols (see Supplementary Table 1). For antagonist activity, cells were preincubated with an antagonist for 30 min, followed by an agonist challenge at 80% of the maximal effective concentration (EC80). Intermediate dilution of sample stocks was performed to generate 5× sample in assay buffer, of which 5 μL was added to cells and incubated at 37°C or room temperature for 30 min. This was followed by an addition of 5 μL of 6× EC80 agonist in assay buffer to the cells, which were incubated at 37°C or room temperature for 90 or 180 min. Assay signal for agonist and antagonist modes was generated through a single addition of 12.5 or 15 μL (50% v/v) of PathHunter Detection reagent cocktail, followed by a 1-h incubation at room temperature. Further experimental details can be found in the Supplementary File. Microplates were read with a PerkinElmer EnVision (Shelton, CT) instrument for chemiluminescent signal detection.
(§2) Measurement of agonist and antagonist activity in the assay was calculated as percent activity of relative luminescence units (from positive control). Significance of agonist/antagonist activity was determined based upon prespecified criteria provided by Eurofins DiscoverX. In brief, receptor activity >30% was considered a significant agonist effect. Receptor inhibition >50% was considered a significant inhibitory effect. Please refer to the Supplementary File for more detail.
(§3) Samples were added to cells and incubated for 90 or 180 minutes at 37 °C or room temperature, depending on the specific receptor, as noted, with specific incubation protocols outlined in Supplemental Table 1. For antagonist activity, preincubation temperatures were performed at the temperatures specified in Supplemental Table 1, per target. Incubation with 6× EC80 agonist was determined by the assay manufacturer and selected in order to provide a challenge that was low enough to be below the saturation point, so as to not bias the results, while still at a high enough challenge concentration to yield a robust signal-to-noise ratio. Further information is available from Eurofins Discovery Services upon request.

AMY2 (CTR-RAMP2) = target: T4, AMY2 (CTR-RAMP2) (Homo sapiens, UniProt O60895+P30988); assay: as above; format: cell-based
T4 construct: ProLink enzyme-donor fragment of β-galactosidase (own knowledge of the PathHunter design)
Method: as §1, §2, §3

5-HT1F = target: T5, 5-HT1F (Homo sapiens, UniProt P30939); assay: as above; format: cell-based
T5 construct: ProLink enzyme-donor fragment of β-galactosidase (own knowledge of the PathHunter design)
T5 sequence (P30939 1-366): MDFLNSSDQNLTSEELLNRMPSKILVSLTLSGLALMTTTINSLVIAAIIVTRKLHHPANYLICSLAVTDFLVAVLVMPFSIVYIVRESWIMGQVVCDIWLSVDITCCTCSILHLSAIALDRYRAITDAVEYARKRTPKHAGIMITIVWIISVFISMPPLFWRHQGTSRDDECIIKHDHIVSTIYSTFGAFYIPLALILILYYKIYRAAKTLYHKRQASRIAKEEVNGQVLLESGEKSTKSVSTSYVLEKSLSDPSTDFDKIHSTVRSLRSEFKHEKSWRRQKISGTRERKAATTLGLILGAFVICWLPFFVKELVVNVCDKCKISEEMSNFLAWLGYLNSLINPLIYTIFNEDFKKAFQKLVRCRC
Method: as §1, §2, §3

D4 = target: T6, D4 (Homo sapiens, UniProt P21917); assay: as above; format: cell-based
T6 construct: ProLink enzyme-donor fragment of β-galactosidase (own knowledge of the PathHunter design)
Method: as §1, §2, §3

α-adrenergic2A = target: T7, α-adrenergic2A (Homo sapiens, UniProt P08913); assay: as above; format: cell-based
T7 construct: ProLink enzyme-donor fragment of β-galactosidase (own knowledge of the PathHunter design)
Method: as §1, §2, §3

D5 = target: T8, D5 (Homo sapiens, UniProt P21918); assay: as above; format: cell-based
T8 construct: ProLink enzyme-donor fragment of β-galactosidase (own knowledge of the PathHunter design)
Method: as §1, §2, §3

D3 [1] = target: T9, D3 (Homo sapiens, UniProt P35462); assay: as above; format: cell-based
T9 construct: ProLink enzyme-donor fragment of β-galactosidase (own knowledge of the PathHunter design)
Method: as §1, §2, §3

α-adrenergic1B = target: T10, α-adrenergic1B (Homo sapiens, UniProt P35368); assay: as above; format: cell-based
T10 construct: ProLink enzyme-donor fragment of β-galactosidase (own knowledge of the PathHunter design)
Method: as §1, §2, §3

α-adrenergic2C = target: T11, α-adrenergic2C (Homo sapiens, UniProt P18825); assay: as above; format: cell-based
T11 construct: ProLink enzyme-donor fragment of β-galactosidase (own knowledge of the PathHunter design)
Method: as §1, §2, §3

[2] = 1.0 mg of IV DHE, phase 1 study, cited from earlier work
[3] = 1 mg of IV DHE, cited from earlier work
D3 [4] = conditions: IV DHE (53 ng/mL); cited from earlier work
CXCR7 = CXCR7 (Homo sapiens, UniProt P25106); assay: Radioligand binding assay (as worded in the discussion); conditions: at concentrations <1.0 μM
[5] = 10 μM, >50% inhibition = antagonist
[6] = agonist control Dopamine at EC80
[7] = agonist control UK 14,304 at EC80

T6 sequence (P21917 whole entry, the tested form may be a part): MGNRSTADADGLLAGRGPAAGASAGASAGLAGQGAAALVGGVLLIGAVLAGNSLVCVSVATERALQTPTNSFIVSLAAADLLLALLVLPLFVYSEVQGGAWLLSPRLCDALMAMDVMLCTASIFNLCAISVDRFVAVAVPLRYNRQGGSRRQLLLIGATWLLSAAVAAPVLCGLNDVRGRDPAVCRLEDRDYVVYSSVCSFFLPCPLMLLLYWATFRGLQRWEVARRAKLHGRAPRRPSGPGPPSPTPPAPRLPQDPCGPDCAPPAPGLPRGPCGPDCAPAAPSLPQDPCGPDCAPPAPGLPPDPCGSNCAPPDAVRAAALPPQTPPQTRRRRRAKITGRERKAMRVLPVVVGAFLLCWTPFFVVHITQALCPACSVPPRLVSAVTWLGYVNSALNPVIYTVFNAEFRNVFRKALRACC
T3 sequence (P21728 whole entry, the tested form may be a part): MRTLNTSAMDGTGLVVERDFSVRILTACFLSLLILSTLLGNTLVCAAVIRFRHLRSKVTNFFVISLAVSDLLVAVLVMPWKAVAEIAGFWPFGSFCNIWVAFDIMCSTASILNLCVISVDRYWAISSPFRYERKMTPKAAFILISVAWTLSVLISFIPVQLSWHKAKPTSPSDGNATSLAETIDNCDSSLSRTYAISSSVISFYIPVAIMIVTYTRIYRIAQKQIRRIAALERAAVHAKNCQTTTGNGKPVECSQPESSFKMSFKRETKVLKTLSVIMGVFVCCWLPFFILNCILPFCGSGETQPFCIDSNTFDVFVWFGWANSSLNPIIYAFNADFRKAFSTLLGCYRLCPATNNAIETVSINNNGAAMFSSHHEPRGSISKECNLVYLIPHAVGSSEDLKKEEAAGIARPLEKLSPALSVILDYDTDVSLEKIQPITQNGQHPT
T8 sequence (P21918 whole entry, the tested form may be a part): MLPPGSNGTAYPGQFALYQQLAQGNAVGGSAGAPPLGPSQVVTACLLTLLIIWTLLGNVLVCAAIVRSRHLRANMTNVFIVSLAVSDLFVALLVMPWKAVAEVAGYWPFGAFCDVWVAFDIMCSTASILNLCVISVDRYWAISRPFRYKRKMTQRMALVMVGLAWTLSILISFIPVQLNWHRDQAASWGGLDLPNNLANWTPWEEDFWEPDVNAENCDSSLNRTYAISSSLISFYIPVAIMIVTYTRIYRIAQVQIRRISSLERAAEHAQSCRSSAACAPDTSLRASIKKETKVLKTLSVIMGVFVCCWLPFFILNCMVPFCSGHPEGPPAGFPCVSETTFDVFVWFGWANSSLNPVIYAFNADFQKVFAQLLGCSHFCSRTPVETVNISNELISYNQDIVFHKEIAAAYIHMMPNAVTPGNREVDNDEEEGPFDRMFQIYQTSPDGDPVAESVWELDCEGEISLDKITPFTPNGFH
T9 sequence (P35462 whole entry, the tested form may be a part): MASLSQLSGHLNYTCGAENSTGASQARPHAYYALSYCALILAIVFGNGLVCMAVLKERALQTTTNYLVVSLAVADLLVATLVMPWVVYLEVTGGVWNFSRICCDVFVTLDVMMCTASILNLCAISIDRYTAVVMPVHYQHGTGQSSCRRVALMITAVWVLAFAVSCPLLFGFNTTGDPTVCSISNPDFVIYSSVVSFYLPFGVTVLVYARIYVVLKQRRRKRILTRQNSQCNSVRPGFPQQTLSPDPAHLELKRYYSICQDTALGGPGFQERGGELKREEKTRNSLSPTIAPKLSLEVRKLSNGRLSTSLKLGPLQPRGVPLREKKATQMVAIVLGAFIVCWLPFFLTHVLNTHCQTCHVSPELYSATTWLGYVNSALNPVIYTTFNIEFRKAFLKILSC
T11 sequence (P18825 whole entry, the tested form may be a part): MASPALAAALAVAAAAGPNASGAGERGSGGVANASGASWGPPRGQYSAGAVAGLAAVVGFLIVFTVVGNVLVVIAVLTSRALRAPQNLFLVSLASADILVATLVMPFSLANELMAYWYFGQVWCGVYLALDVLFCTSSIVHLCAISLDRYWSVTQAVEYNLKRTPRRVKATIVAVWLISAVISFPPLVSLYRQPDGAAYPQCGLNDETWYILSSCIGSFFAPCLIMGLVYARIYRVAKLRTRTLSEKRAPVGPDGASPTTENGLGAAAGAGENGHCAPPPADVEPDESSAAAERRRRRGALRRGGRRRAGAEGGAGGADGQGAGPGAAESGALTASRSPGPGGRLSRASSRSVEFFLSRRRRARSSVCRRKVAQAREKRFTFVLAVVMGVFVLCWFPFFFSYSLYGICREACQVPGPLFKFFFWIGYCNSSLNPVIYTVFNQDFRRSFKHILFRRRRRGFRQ
T4 sequence (P30988 25-474): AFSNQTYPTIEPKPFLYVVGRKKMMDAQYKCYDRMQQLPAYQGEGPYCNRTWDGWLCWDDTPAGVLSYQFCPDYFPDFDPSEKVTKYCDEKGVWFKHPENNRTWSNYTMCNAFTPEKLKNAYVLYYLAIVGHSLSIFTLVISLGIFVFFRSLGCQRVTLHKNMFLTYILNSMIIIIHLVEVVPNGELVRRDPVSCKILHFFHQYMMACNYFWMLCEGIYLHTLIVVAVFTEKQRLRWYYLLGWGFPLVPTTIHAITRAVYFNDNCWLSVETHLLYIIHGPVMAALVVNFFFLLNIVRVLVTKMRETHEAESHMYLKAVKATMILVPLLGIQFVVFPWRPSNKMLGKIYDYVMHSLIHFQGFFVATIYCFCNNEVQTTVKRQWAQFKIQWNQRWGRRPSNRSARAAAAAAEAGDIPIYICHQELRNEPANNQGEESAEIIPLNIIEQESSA
T4 sequence (O60895 43-175 partner): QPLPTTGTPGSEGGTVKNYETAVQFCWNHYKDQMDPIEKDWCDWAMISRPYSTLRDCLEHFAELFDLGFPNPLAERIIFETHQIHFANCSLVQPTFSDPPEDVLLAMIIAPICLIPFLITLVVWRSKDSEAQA
T10 sequence (P35368 whole entry, the tested form may be a part): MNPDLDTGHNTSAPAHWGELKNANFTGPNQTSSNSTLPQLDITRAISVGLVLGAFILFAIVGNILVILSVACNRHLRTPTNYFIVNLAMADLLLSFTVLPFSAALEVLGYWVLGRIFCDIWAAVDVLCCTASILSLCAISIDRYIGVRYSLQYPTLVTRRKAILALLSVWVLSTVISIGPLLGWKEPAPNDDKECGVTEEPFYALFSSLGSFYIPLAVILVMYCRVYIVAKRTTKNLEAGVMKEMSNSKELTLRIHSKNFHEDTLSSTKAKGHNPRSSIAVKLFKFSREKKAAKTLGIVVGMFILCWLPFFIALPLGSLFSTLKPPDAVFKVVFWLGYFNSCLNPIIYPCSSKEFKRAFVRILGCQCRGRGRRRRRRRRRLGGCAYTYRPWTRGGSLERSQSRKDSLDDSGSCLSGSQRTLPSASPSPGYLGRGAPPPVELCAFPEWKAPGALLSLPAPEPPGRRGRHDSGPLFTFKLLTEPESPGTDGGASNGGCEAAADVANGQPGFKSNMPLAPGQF
T7 sequence (P08913 whole entry, the tested form may be a part): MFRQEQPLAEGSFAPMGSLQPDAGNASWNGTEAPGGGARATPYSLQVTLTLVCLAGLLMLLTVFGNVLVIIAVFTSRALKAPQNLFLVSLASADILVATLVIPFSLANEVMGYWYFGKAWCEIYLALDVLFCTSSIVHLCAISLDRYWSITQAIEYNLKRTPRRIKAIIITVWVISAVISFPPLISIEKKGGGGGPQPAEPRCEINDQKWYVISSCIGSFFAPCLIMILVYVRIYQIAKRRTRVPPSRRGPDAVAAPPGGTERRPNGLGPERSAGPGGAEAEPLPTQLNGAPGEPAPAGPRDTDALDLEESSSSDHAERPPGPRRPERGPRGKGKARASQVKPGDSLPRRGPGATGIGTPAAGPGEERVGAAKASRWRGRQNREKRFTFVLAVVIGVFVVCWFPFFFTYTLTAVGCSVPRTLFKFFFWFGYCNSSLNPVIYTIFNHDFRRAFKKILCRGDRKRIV
T1 sequence (Q13639 1-378 isoform Q13639-5): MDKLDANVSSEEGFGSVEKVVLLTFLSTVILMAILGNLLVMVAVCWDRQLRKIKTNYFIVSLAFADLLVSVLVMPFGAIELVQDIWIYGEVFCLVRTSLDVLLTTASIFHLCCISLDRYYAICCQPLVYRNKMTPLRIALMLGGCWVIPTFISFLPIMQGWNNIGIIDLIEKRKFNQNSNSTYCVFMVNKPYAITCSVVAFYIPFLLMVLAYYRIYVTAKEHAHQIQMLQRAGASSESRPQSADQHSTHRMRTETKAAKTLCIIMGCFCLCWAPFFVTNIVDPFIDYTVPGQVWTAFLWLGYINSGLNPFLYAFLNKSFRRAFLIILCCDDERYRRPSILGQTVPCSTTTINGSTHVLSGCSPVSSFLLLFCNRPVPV
T2 sequence (P14416 1-414 isoform P14416-2): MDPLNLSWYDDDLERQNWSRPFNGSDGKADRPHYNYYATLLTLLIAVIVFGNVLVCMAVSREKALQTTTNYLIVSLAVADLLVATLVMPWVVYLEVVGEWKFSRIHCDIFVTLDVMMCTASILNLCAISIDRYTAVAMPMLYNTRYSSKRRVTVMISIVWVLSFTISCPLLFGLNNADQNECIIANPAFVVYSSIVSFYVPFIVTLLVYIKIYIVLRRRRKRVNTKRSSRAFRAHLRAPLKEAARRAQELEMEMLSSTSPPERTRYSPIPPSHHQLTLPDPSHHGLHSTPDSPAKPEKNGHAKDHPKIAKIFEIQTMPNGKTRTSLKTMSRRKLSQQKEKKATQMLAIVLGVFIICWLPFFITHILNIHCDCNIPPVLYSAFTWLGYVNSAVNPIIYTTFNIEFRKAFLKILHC
CXCR7, sequence (P25106 whole entry): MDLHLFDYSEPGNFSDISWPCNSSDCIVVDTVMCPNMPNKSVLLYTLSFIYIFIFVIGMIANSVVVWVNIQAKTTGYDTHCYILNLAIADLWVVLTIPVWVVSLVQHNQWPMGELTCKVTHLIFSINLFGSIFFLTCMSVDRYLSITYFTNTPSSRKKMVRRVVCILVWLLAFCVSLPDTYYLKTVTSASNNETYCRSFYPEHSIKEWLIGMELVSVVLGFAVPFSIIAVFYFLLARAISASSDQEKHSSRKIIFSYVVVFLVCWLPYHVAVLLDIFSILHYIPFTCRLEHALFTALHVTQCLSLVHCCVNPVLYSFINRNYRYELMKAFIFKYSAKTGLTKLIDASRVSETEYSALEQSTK

## CN1C[C@H](C(=O)N[C@]2(C)O[C@@]3(O)[C@@H]4CCCN4C(=O)[C@H](Cc4ccccc4)N3C2=O)C[C@@H]2c3cccc4[nH]cc(c34)C[C@H]21 [DHE, Dihydroergotamine mesylate]
Human 5-HT4E receptor
  IC50: 230 nM
D2
  IC50: 0.47 nM
D1; [5]
  DHE activity (screening): Antagonist
D1; [6]
  inhibition at 10 µM: 71%
AMY2 (CTR-RAMP2)
  inhibition at 10 µM: 57%
AMY2 (CTR-RAMP2); [5]
  DHE activity (screening): Antagonist
5-HT1F
  IC50: 149 nM
5-HT1F; [5]
  DHE activity (screening): Antagonist
5-HT1F; 10 μM, agonist control Serotonin at EC80
  inhibition at 10 µM: 92%
D4; [5]
  DHE activity (screening): Antagonist
D4; [6]
  inhibition at 10 µM: 83%
α-adrenergic2A; [5]
  DHE activity (screening): Antagonist
α-adrenergic2A; [7]
  inhibition at 10 µM: 115%
D5; [5]
  DHE activity (screening): Antagonist
D5; [6]
  inhibition at 10 µM: 54%
D3 [1]; [5]
  DHE activity (screening): Antagonist
D3 [1]; [6]
  inhibition at 10 µM: 91%
α-adrenergic1B; [5]
  DHE activity (screening): Antagonist
α-adrenergic1B; agonist control Phenylephrine at EC80
  inhibition at 10 µM: 95%
α-adrenergic2C; [5]
  DHE activity (screening): Antagonist
α-adrenergic2C; [7]
  inhibition at 10 µM: 124%
[2]
  Human plasma Cmax: 14.2 ng/mL
[2]; read-out: Human plasma Cmax
  Cmax: ~24 nM
[3]
  maximum plasma concentration (Cmax): 53 ng/mL
[3]; read-out: maximum plasma concentration (Cmax)
  Cmax: ~91 nM
D3 [4]
  receptor radioligand binding (active binding): X (An X denotes active binding)
CXCR7
  DHE binding/activity at CXCR7: Additional notes • Radioligand binding assays reported here did not show DHE binding at concentrations <1.0 μM; therefore, agonist activity of DHE on CXCR7 is unlikely in clinically relevant conditions
